Test results reported in patent publication US11986450B2, “Methods and compositions for treating infection and inflammation with selenocyanate” (National Jewish Health, priority 2017, dated 2024).

System: P. aeruginosa: PAO1
Assay: HOSCN reductase activity

Structure (SMILES): N#CSO [HOSCN, hypothiocyanite]
- Apparent Vmax (HOSCN reductase activity): ND^c (No activity detected. Limit of detection = 0.5 nmol mg^−1 min^−1)
